Measurements: patent US8969325B2, “TRPV1 antagonists” (AbbVie Inc., priority 2011, dated 2015)

Assays:
[1] = target: T1, human TRPV1 (Homo sapiens (Human), UniProt Q8NER1); assay: Acid Activation Assay (pH 5.0, intracellular Ca2+, FLIPR); type: cell-based; conditions: percentage of the maximal pH 5.0-induced response remaining; recombinant HEK293 hTRPV1 cells; maximum concentration tested 37.5 μM
Method in brief: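 HEK293 cells stably expressing recombinant hTRPV1, loaded with Calcium-4 dye 90-120 min at 25° C. Compounds added over a 12-point half-log range (top 37.5 μM), then pH 5.0 DPBS/MES challenge after 3 min; FLIPR peak fluorescence over baseline given as % of maximal pH 5.0 response.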

[2] = target: T1, human TRPV1; assay: Capsaicin Activation Assay (intracellular Ca2+, FLIPR); type: cell-based; conditions: recombinant HEK293 cells expressing hTRPV1, 50 nM capsaicin
Method in brief: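 Stably transfected HEK293 cells expressing human TRPV1 cDNA, plated the day before in poly-D-lysine plates. Compounds serially diluted from 10 mM DMSO stocks; intracellular Ca2+ fluorescence read on FLIPR at 1 to 5 second intervals.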

T1 sequence (Q8NER1 whole entry): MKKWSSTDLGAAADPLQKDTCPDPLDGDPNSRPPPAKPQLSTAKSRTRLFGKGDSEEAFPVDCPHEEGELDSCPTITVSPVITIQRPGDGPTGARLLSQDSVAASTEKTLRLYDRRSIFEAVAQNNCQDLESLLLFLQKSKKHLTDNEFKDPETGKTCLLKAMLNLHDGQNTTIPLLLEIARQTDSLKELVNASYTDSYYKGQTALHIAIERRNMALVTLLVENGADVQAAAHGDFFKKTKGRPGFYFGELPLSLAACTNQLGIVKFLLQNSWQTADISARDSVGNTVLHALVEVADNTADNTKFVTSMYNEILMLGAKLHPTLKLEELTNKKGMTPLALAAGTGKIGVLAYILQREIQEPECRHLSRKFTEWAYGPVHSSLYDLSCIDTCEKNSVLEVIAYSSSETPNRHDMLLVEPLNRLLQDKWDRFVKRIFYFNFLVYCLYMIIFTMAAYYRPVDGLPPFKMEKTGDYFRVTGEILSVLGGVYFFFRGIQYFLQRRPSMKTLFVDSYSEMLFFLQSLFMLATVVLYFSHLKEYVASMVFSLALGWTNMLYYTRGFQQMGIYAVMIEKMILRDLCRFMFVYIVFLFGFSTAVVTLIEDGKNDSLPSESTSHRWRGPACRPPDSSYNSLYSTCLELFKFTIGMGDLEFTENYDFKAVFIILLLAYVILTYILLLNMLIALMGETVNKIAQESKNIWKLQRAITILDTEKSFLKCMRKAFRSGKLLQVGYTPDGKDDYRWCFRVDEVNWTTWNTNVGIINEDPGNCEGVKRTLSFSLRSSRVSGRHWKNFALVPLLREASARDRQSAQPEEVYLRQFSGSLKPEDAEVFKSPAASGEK

CN1C(=O)CCc2ccc(NC(=O)N[C@@H]3CC(C)(C)Oc4ccc(F)cc43)cc21 [Example 274, 1-[(4R)-6-fluoro-2,2-dimethyl-3,4-dihydro-2H-chromen-4-yl]-3-(1-methyl-2-oxo-1,2,3,4-tetrahydroquinolin-7-yl)urea]
human TRPV1 H^+ (max % remain) [1]: 81% | IC50 [2]: 53 nM

CN1C(=O)CCc2ccc(NC(=O)N[C@@H]3CC(C)(C)Oc4c3ccc(F)c4Cl)cc21 [Example 275, 1-[(4R)-8-chloro-7-fluoro-2,2-dimethyl-3,4-dihydro-2H-chromen-4-yl]-3-(1-methyl-2-oxo-1,2,3,4-tetrahydroquinolin-7-yl)urea]
human TRPV1 H^+ (max % remain) [1]: 83% | IC50 [2]: 920 nM

CN1C(=O)CCc2ccc(NC(=O)N[C@H]3CCOc4cc(OC(F)(F)F)ccc43)cc21 [Example 276, 1-(1-methyl-2-oxo-1,2,3,4-tetrahydroquinolin-7-yl)-3-[(4S)-7-(trifluoromethoxy)-3,4-dihydro-2H-chromen-4-yl]urea]
human TRPV1 H^+ (max % remain) [1]: 77% | IC50 [2]: 44 nM

CN1C(=O)CCc2ccc(NC(=O)N[C@@H]3CC(C)(C)Oc4cc(Cl)ccc43)cc21 [Example 277, 1-[(4R)-7-chloro-2,2-dimethyl-3,4-dihydro-2H-chromen-4-yl]-3-(1-methyl-2-oxo-1,2,3,4-tetrahydroquinolin-7-yl)urea]
human TRPV1 H^+ (max % remain) [1]: 33% | IC50 [2]: 4200 nM

CN1C(=O)CCc2ccc(NC(=O)N[C@@H]3CCOc4cc(OC(F)(F)F)ccc43)cc21 [Example 278, 1-(1-methyl-2-oxo-1,2,3,4-tetrahydroquinolin-7-yl)-3-[(4R)-7-(trifluoromethoxy)-3,4-dihydro-2H-chromen-4-yl]urea]
human TRPV1 H^+ (max % remain) [1]: 68% | IC50 [2]: 77 nM

COCC1(COC)C[C@@H](NC(=O)Nc2ccc3c(c2)N(C)C(=O)CC3)c2cc(F)ccc2O1 [Example 279, 1-[(4R)-6-fluoro-2,2-bis(methoxymethyl)-3,4-dihydro-2H-chromen-4-yl]-3-(1-methyl-2-oxo-1,2,3,4-tetrahydroquinolin-7-yl)urea]
human TRPV1 H^+ (max % remain) [1]: 50% | IC50 [2]: 510 nM

CN1C(=O)CCc2ccc(NC(=O)N[C@@H]3CC(CF)(CF)Oc4ccccc43)cc21 [Example 280, 1-[(4R)-2,2-bis(fluoromethyl)-3,4-dihydro-2H-chromen-4-yl]-3-(1-methyl-2-oxo-1,2,3,4-tetrahydroquinolin-7-yl)urea]
human TRPV1 H^+ (max % remain) [1]: 68% | IC50 [2]: 960 nM

CN1C(=O)CCc2ccc(NC(=O)N[C@@H]3CC(CF)(CF)Oc4c(F)cccc43)cc21 [Example 281, 1-[(4R)-8-fluoro-2,2-bis(fluoromethyl)-3,4-dihydro-2H-chromen-4-yl]-3-(1-methyl-2-oxo-1,2,3,4-tetrahydroquinolin-7-yl)urea]
human TRPV1 H^+ (max % remain) [1]: 86% | IC50 [2]: 820 nM

CN1C(=O)CCc2ccc(NC(=O)N[C@@H]3CCOc4ccc(F)cc43)cc21 [Example 282, 1-[(4R)-6-fluoro-3,4-dihydro-2H-chromen-4-yl]-3-(1-methyl-2-oxo-1,2,3,4-tetrahydroquinolin-7-yl)urea]
human TRPV1 H^+ (max % remain) [1]: 81% | IC50 [2]: 410 nM

CN1C(=O)CCc2ccc(NC(=O)N[C@@H]3CCc4cc(Cl)ccc43)cc21 [Example 283, 1-[(1R)-5-chloro-2,3-dihydro-1H-inden-1-yl]-3-(1-methyl-2-oxo-1,2,3,4-tetrahydroquinolin-7-yl)urea]
human TRPV1 H^+ (max % remain) [1]: 84% | IC50 [2]: 4800 nM

CN1C(=O)CCc2ccc(NC(=O)N[C@@H]3CCc4cc(F)ccc43)cc21 [Example 285, 1-[(1R)-5-fluoro-2,3-dihydro-1H-inden-1-yl]-3-(1-methyl-2-oxo-1,2,3,4-tetrahydroquinolin-7-yl)urea]
human TRPV1 H^+ (max % remain) [1]: 27% | IC50 [2]: 55 nM

CN1C(=O)CCc2ccc(NC(=O)N[C@H]3CC4(CCC4)Oc4ccc(F)cc43)cc21 [Example 286, 1-[(4S)-6-fluoro-3,4-dihydrospiro[chromene-2,1′-cyclobutan]-4-yl]-3-(1-methyl-2-oxo-1,2,3,4-tetrahydroquinolin-7-yl)urea]
human TRPV1 H^+ (max % remain) [1]: 68% | IC50 [2]: 260 nM

CN1C(=O)CCc2ccc(NC(=O)N[C@H]3CC(C)(C)Oc4ccc(F)cc43)cc21 [Example 287, 1-[(4S)-6-fluoro-2,2-dimethyl-3,4-dihydro-2H-chromen-4-yl]-3-(1-methyl-2-oxo-1,2,3,4-tetrahydroquinolin-7-yl)urea]
human TRPV1 H^+ (max % remain) [1]: 92% | IC50 [2]: 13000 nM

CN1C(=O)CCc2ccc(NC(=O)N[C@@H]3CC4(CCCC4)Oc4ccccc43)cc21 [Example 288, 1-[(4R)-3,4-dihydrospiro[chromene-2,1′-cyclopentan]-4-yl]-3-(1-methyl-2-oxo-1,2,3,4-tetrahydroquinolin-7-yl)urea]
human TRPV1 H^+ (max % remain) [1]: 75% | IC50 [2]: 10000 nM

CN1C(=O)CCc2ccc(NC(=O)N[C@@H]3C[C@@](C)(CF)Oc4cc(C(F)(F)F)ccc43)cc21 [Example 289, 1-[(2S,4R)-2-(fluoromethyl)-2-methyl-7-(trifluoromethyl)-3,4-dihydro-2H-chromen-4-yl]-3-(1-methyl-2-oxo-1,2,3,4-tetrahydroquinolin-7-yl)urea]
human TRPV1 H^+ (max % remain) [1]: 68% | IC50 [2]: 230 nM

CN1C(=O)CCc2ccc(NC(=O)N[C@@H]3C[C@](C)(CF)Oc4cc(C(F)(F)F)ccc43)cc21 [Example 290, 1-[(2R,4R)-2-(fluoromethyl)-2-methyl-7-(trifluoromethyl)-3,4-dihydro-2H-chromen-4-yl]-3-(1-methyl-2-oxo-1,2,3,4-tetrahydroquinolin-7-yl)urea]
human TRPV1 H^+ (max % remain) [1]: 68% | IC50 [2]: 15 nM

CN1C(=O)CCc2ccc(NC(=O)N[C@@H]3C[C@@](C)(CF)Oc4cc(Cl)ccc43)cc21 [Example 291, 1-[(2S,4R)-7-chloro-2-(fluoromethyl)-2-methyl-3,4-dihydro-2H-chromen-4-yl]-3-(1-methyl-2-oxo-1,2,3,4-tetrahydroquinolin-7-yl)urea]
human TRPV1 H^+ (max % remain) [1]: 71% | IC50 [2]: 26 nM

CN1C(=O)CCc2ccc(NC(=O)N[C@@H]3C[C@@](C)(C(F)F)Oc4ccccc43)cc21 [Example 292, 1-[(2S,4R)-2-(difluoromethyl)-2-methyl-3,4-dihydro-2H-chromen-4-yl]-3-(1-methyl-2-oxo-1,2,3,4-tetrahydroquinolin-7-yl)urea]
human TRPV1 H^+ (max % remain) [1]: 68% | IC50 [2]: 26 nM

CN1C(=O)CCc2ccc(NC(=O)N[C@@H]3C[C@](C)(C(F)F)Oc4ccccc43)cc21 [Example 293, 1-[(2R,4R)-2-(difluoromethyl)-2-methyl-3,4-dihydro-2H-chromen-4-yl]-3-(1-methyl-2-oxo-1,2,3,4-tetrahydroquinolin-7-yl)urea]
human TRPV1 H^+ (max % remain) [1]: 72% | IC50 [2]: 270 nM

CN1C(=O)CCc2ccc(NC(=O)N[C@@H]3CC(C)(C)Oc4c3ccc(Cl)c4F)cc21 [Example 294, 1-[(4R)-7-chloro-8-fluoro-2,2-dimethyl-3,4-dihydro-2H-chromen-4-yl]-3-(1-methyl-2-oxo-1,2,3,4-tetrahydroquinolin-7-yl)urea]
human TRPV1 H^+ (max % remain) [1]: 71% | IC50 [2]: 120 nM

CN1C(=O)CCc2ccc(NC(=O)N[C@@H]3CC(C)(C)Oc4nc(C(F)(F)F)ccc43)cc21 [Example 295, 1-[(4R)-2,2-dimethyl-7-(trifluoromethyl)-3,4-dihydro-2H-pyrano[2,3-b]pyridin-4-yl]-3-(1-methyl-2-oxo-1,2,3,4-tetrahydroquinolin-7-yl)urea]
human TRPV1 H^+ (max % remain) [1]: 67% | IC50 [2]: 99 nM
